Measurements from US5352667A, “Non-peptidic surrogates of the Arg-Gly-Asp sequence and pharmaceutical compositions comprising them” (priority 1991, dated 1994).

test system: B16-melanoma cells adhesion to VN; assay: Inhibition of B16-melanoma cell adhesion to VN; format: cell-based, murine; conditions: surrogates 0.2 mM; * P<0.05
Description: (§1) To examine the adhesive properties of tumor cells, 1 μg/50μ/well of FN or 0.3μg/well of VN were added to 96-flat bottom microtiter wells for 12 h. Unbound proteins were then washed away and remaining binding sites were blocked with 0.1% BSA added to the wells for 2 h and washed. Murine B16-melanoma F-1 cells were metabolically labeled with ^35 S-methionine (New England Nuclear) for 2 h, chased for 18 h and extensively washed. The cell suspension was resuspened in RPMI supplemented with 1% BSA containing 1 mM CaCl2 and MgCl2. Tumor cell adhesion to control wells or to wells coated with BSA was always 2-5%. The tested non-peptidic surrogates, 0.2 mM in PBS, were used to pretreat the tumor cells for 15 min before seeding the cells *, P<0.05.
(§2) In a first series of experiments, the potential inhibitory action of the RGD surrogate SF-6,5 on adhesion of B16 melanoma cells to FN or VN was compared to that of the RGE surrogate SF-6,6 and to that of RGD, GRGDSPK and GRGESP peptides.

Compound | % inhibition of adhesion of B16-melanoma cells to VN
GRGESP | 0%
Arg-Gly-Asp [RGD] | 0%

same assay, conditions: surrogates 0.2 mM; none 68 ± 5

Compound | % Adhesion of B16-melanoma cells to VN
GRGESP | 66 ± 8%
Arg-Gly-Asp [RGD] | 66 ± 6%

test system: CD4^+ T cell adhesion to 120 kD fragment of FN; assay: Inhibition of activated CD4+ T cell adhesion to 120 kD fragment of FN; format: cell-based, human; conditions: 0.2 mM peptides and surrogates; mAb anti-CD29 1/200, anti-VLA5 1/400 diluted; * P<0.05
Description: (§3) To examine the adhesive properties of the T cells, 1 μg/50 μl/well of either fibronectin (FN) (Sigma), the 120 kD cell attachment fragment of FN (Telios Pharm. Inc. San Diego, CA), or laminin (LN) (Sigma), were added to 96-flat bottom microtiter-wells for 12 h. Unbound proteins were then washed away and remaining binding sites were blocked with 0.1% bovine serum albumin (BSA) added to the wells for 2 h and washed. CD4+T cells were purified from peripheral blood mononuclear leukocytes obtained from healthy human donors. The mononuclear cells were isolated using a Ficoll gradient, washed and incubated in RPMI supplemented with 10% fetal calf serum (FCS) and antibiotics in petri dishes at 37° C. humidified CO2 incubator. After 2 h, the non-adherent cells were isolated and applied on nylon-wool columns (1.5 h). CD4^+ T cells were then negatively selected by exposure of the cells to a cocktail of anti-CD8, CD19, and CD14 monoclonal antibodies (mAb) conjugated to magnetic-beads (Advanced Magnetics, MA). Unbound cells were recovered and their phenotype was examined. Purity of the CD4^+ T cells was always greater than 92% as determined by FACScan.
(§4) The purified CD4^+ T cells were radioactively labeled with ^51 [Cr](New England Nuclear) in RPMI +20% FCS for 2 h and washed. The cells were counted and seeded (0.2×10^5 cells) on the precoated microtiter wells in the presence or the absence of the various inhibitors. Coating was made either with FN, the 120 kD cell-attachment fragment of FN or with control adhesive protein laminin (LN). The inhibitors were various surrogates according to the invention, other test molecules or mAb. After 30 min incubation (in […] CO2 -- humidified incubator) the T cells were activated by 10 ng/ml phorbol myristate acetate (PMA) and the percent of T cells attached to the protein substrates was measured. Unbound cells were washed away after 20-30 min, the bound cells were lysed and their radioactivity was measured using radioactive counter. The amount of the radioactivity of the cell lysates represent the matrix-adherent cells and percent binding was calculated in comparison to the total radioactivity added to the wells. Activated T cell adhesion to control wells or to wells coated with BSA was always 2-5%; the level of adhesion of the non-activated T cells was always below 5%. Where indicated, 1/200 diluted mAb anti-CD29 (anti-β1 mAb Serotec, GB), or 1/400 diluted anti-VLA5 (the β1α5 FN-integrin receptor) mAb (Telios Pharm. Inc. San Diego), or 0.2 mM of RGD, GRGDSPK or GRGESP peptides (Sigma) were used. The tested non-peptidic surrogates, 0.2 mM in PBS, were used to pretreat the T cells for 15 min before seeding the cells *, P<0.05. The results shown in Tables 1A, 1B and 1C represent data obtained from several experiments that produced essentially similar results.
(§5) The four RGD surrogates, AC-4.

Compound | % inhibition of adhesion of activated CD4^+ T cell to 120 kD fragment of FN
N=C(N)NCCCCC(=O)NCCCCCC(=O)O [AC-15, 7-aza-8-oxo-12-quanidino-dodecanoic acid] | 19%
N=C(N)NCCCC(=O)NCCC(=O)NCCC(=O)O [AC-14, 4,8-diaza-5,9-dioxo-12-quanidino-dodecanoic acid] | 42%
GRGESP | 0%
Arg-Gly-Asp [RGD] | 12%
NCCCCCC(=O)NCCCCC(=O)O [SFN-70, reference compound] | 0%
N=C(N)NCCCCC(=O)NCC(=O)NCCC(=O)O [AC-4, 4,7-diaza-5,8-dioxo-12-quanidino-dodecanoic acid] | 47%

same assay, conditions: 0.2 mM peptides and surrogates; mAb anti-CD29 1/200, anti-VLA5 1/400 diluted; PMA activated; none 43 ± 4

Compound | % Adhesion of activated CD4^+ T cell to 120 kD fragment of FN
N=C(N)NCCCCC(=O)NCCCCCC(=O)O [AC-15, 7-aza-8-oxo-12-quanidino-dodecanoic acid] | 35 ± 5%
N=C(N)NCCCC(=O)NCCC(=O)NCCC(=O)O [AC-14, 4,8-diaza-5,9-dioxo-12-quanidino-dodecanoic acid] | 25 ± 4%
GRGESP | 46 ± 3%
Arg-Gly-Asp [RGD] | 38 ± 3%
NCCCCCC(=O)NCCCCC(=O)O [SFN-70, reference compound] | 42 ± 5%
N=C(N)NCCCCC(=O)NCC(=O)NCCC(=O)O [AC-4, 4,7-diaza-5,8-dioxo-12-quanidino-dodecanoic acid] | 16 ± 3%

same assay, conditions: 0.2 mM; 120 kD fragment of FN

Compound | T cell adhesion to FN, in words
N=C(N)NCCCCC(=O)NCCCCCC(=O)O [AC-15, 7-aza-8-oxo-12-quanidino-dodecanoic acid] | inhibited T cell adhesion to FN
N=C(N)NCCCC(=O)NCCC(=O)NCCC(=O)O [AC-14, 4,8-diaza-5,9-dioxo-12-quanidino-dodecanoic acid] | inhibited T cell adhesion to FN
Arg-Gly-Asp [RGD] | specifically inhibited
NCCCCCC(=O)NCCCCC(=O)O [SFN-70, reference compound] | did not inhibit T cell adhesion to both FN and LN
N=C(N)NCCCCC(=O)NCC(=O)NCCC(=O)O [AC-4, 4,7-diaza-5,8-dioxo-12-quanidino-dodecanoic acid] | inhibited T cell adhesion to FN

test system: CD4^+ T cell adhesion to LN; assay: Inhibition of activated CD4+ T cell adhesion to laminin (LN); format: cell-based, human; conditions: 0.2 mM
Description: as §3, §4, §5

Compound | T cell adhesion to LN, in words
NCCCCCC(=O)NCCCCC(=O)O [SFN-70, reference compound] | did not inhibit T cell adhesion to both FN and LN

same assay, conditions: 0.2 mM peptides and surrogates; mAb anti-CD29 1/200, anti-VLA5 1/400 diluted; * P<0.05

Compound | % inhibition of adhesion of activated CD4^+ T cell to LN
N=C(N)NCCCCC(=O)NCCCCCC(=O)O [AC-15, 7-aza-8-oxo-12-quanidino-dodecanoic acid] | 0%
N=C(N)NCCCC(=O)NCCC(=O)NCCC(=O)O [AC-14, 4,8-diaza-5,9-dioxo-12-quanidino-dodecanoic acid] | 0%
GRGESP | 0%
Arg-Gly-Asp [RGD] | 0%
NCCCCCC(=O)NCCCCC(=O)O [SFN-70, reference compound] | 0%
N=C(N)NCCCCC(=O)NCC(=O)NCCC(=O)O [AC-4, 4,7-diaza-5,8-dioxo-12-quanidino-dodecanoic acid] | 0%

same assay, conditions: 0.2 mM peptides and surrogates; mAb anti-CD29 1/200, anti-VLA5 1/400 diluted; none 55 ± 5

Compound | % Adhesion of activated CD4^+ T cell to LN
N=C(N)NCCCCC(=O)NCCCCCC(=O)O [AC-15, 7-aza-8-oxo-12-quanidino-dodecanoic acid] | 52 ± 4%
N=C(N)NCCCC(=O)NCCC(=O)NCCC(=O)O [AC-14, 4,8-diaza-5,9-dioxo-12-quanidino-dodecanoic acid] | 55 ± 6%
GRGESP | 52 ± 3%
Arg-Gly-Asp [RGD] | 57 ± 3%
NCCCCCC(=O)NCCCCC(=O)O [SFN-70, reference compound] | 49 ± 6%
N=C(N)NCCCCC(=O)NCC(=O)NCCC(=O)O [AC-4, 4,7-diaza-5,8-dioxo-12-quanidino-dodecanoic acid] | 57 ± 4%

test system: CD4^+ T cell adhesion to FN; assay: Inhibition of activated CD4+ T cell adhesion to FN; format: cell-based, human; conditions: Table 1B; surrogates 0.2 mM; CD4^+ T cell to FN
Description: as §3
as §4, with “The tested non-peptidic surrogates, 0.2 mM in PBS, were used to pretreat the T cells for 15 min before seeding the cells *, P<0.05.” left out
In a second series of experiments, FN was used in the adhesion assay carried out with the RGD surrogates NS-8, NS-11 and NS-15 in comparison to RGDS peptide.
In a third series of experiments, FN was used in the adhesion assay with the surrogates SF-6,5 and NS-11 and compared to the peptide GRGDSP.

Compound | % Inhibition of adhesion
RGDS [reference compound] | 67%
N=C(N)NCCC(=O)Nc1cccc(C(=O)NCCC(=O)O)c1 [NS-15] | 59%
N=C(N)NCCCCC(=O)N1CCCCC1C(=O)NCCC(=O)O (stereo not shown) [NS-8] | 31%

same assay, conditions: Table 1B; surrogates 0.2 mM; none 65

Compound | % Adhesion of activated CD4^+ to FN
RGDS [reference compound] | 22%
N=C(N)NCCC(=O)Nc1cccc(C(=O)NCCC(=O)O)c1 [NS-15] | 27%
N=C(N)NCCCCC(=O)N1CCCCC1C(=O)NCCC(=O)O (stereo not shown) [NS-8] | 45%

test system: B16-melanoma cells adhesion to FN; assay: Inhibition of B16-melanoma cell adhesion to FN; format: cell-based, murine; conditions: surrogates 0.2 mM; * P<0.05
Description: as §1, §2
In a further set of experiments, the inhibitory activity of the RGD surrogates SF-6,5 and NS-11 on the adhesion of B16 murine melanoma cells to FN was compared to that of the GRGDSP peptide.

Compound | % inhibition of adhesion of B16-melanoma cells to FN
GRGESP | 0%
Arg-Gly-Asp [RGD] | 7%

same assay, conditions: surrogates 0.2 mM; none 75 ± 5

Compound | % Adhesion of B16-melanoma cells to FN
GRGESP | 73 ± 5%
Arg-Gly-Asp [RGD] | 70 ± 3%

target: T1, platelet GPIIb-IIIa receptor (Homo sapiens, UniProt P05106+P08514); assay: Inhibition of ADP-induced platelet aggregation (platelet rich plasma); format: cell-based; conditions: FIG. 4; fixed sub-saturating 0.5 mM / 10μg/ml; 4 experiments
T1 construct: Platelet concentrates were prepared from human whole blood; endogenous in cells; host or cells: human platelets in platelet rich plasma
Description: To investigate the inhibitory role of the RGD analogues on adhesion, the platelet GPIIb-IIIa receptor which mediates platelet aggregation upon activation was used as a model.
Platelet concentrates were prepared from human whole blood in 10% adenine-citrate-dextrose in Fenwall bags (Baxter Travenol, Israel) followed by standard AABB protocol. Platelet rich plasma was prepared by centrifugation (2500 rpm for 5 min). Samples of platelets were counted in a Minos AST Cell Counter (Levoiselle, France). Cell aggregation was induced by […] and monitored at […] in a 4-channel Aggregometer (Bio-Data, Hatboro, Pa.). To evaluate the effect of the various RGD peptides and the peptide analogues, the platelet rich plasma was pre-incubated with the various inhibitors for 10 min at 37° C. with 10μsolutions followed by the induction of aggregation.
To examine the specificity of the inhibitory effect of the RGD-analogues on platelet aggregation, the cells were treated with various peptidic (RGD and GRGDSP) and non-peptidic (SF-6,6, SF-6,5 and AC-15) RGD analogues used at a fixed sub-saturating concentration of 0.5 mM.
An in vitro assay as described in Example 17 was carried out with the compound NS-11 to examine its ability to interfere with platelet aggregation, and compared it to the SF-6,5 surrogate.
Platelet rich plasma (PRP) was prepared from acid/citrate/dextrose anti-coagulated fresh human blood by differential centrifugation. Platelet aggregation was induced by […] and monitored at 695 nm by a 4-channel Aggregometer (Bio-Data, PA). To evaluate the effect of the RGDS peptide and the NS-8, NS-11 and NS-15 analogs, the PRP was preincubated with the inhibitors for 10 minutes at 37° C., prior to the induction of aggregation. […] In fact, 50% inhibition of platelet aggregation was achieved using a 30-fold lower concentration of NS-11 than that of RGDS.

T1 sequence (P08514 32-887 limits assumed): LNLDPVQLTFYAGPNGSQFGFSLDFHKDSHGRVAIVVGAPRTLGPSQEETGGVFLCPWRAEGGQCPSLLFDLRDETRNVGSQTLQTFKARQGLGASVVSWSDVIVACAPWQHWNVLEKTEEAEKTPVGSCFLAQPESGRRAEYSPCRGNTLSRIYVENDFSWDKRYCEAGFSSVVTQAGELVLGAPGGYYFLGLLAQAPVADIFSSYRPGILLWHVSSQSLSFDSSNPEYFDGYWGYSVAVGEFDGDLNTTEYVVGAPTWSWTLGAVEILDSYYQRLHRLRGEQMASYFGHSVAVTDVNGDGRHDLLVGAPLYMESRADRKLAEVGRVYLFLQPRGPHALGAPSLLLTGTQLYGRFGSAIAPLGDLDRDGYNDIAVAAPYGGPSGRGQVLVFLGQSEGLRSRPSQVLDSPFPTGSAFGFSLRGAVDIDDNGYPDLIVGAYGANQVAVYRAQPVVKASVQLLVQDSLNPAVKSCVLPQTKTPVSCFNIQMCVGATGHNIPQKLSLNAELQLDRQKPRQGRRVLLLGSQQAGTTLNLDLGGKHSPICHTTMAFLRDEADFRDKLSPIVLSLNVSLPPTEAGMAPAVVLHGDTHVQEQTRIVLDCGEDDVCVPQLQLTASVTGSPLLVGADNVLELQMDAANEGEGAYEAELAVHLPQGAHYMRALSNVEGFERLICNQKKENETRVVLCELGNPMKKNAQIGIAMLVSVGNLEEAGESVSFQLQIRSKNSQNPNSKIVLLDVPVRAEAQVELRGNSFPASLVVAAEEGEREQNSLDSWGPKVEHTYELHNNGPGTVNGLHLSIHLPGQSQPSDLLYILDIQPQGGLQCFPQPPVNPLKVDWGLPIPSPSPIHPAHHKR
T1 sequence (P08514 891-1039 limits assumed): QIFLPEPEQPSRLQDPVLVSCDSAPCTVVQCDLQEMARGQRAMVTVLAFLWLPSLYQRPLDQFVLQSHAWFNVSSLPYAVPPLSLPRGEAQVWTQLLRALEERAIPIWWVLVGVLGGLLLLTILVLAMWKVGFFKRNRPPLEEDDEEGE
T1 sequence (P05106 27-788): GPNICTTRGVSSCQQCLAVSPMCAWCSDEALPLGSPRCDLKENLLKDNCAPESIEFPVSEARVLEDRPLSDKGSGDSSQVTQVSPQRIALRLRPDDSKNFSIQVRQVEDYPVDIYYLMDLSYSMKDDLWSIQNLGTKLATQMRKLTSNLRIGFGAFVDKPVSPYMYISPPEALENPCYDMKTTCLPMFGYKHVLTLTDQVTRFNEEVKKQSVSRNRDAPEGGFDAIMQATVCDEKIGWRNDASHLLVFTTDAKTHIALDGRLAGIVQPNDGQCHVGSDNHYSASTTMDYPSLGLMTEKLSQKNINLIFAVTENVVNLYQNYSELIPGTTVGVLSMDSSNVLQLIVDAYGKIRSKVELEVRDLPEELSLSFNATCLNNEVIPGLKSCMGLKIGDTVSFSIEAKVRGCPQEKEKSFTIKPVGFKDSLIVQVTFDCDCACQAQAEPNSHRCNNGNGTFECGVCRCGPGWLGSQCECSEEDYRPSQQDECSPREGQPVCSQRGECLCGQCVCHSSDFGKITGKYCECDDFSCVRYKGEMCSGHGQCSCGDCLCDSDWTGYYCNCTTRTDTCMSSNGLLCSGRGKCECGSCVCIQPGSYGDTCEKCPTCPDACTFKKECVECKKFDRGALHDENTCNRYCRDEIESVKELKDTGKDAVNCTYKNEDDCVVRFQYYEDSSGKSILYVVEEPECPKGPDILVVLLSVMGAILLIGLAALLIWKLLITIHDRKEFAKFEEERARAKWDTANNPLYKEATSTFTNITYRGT

Compound | Inhibition of platelet aggregation at fixed concentration, in words
N=C(N)NCCCCC(=O)NCCCCCC(=O)O [AC-15, 7-aza-8-oxo-12-quanidino-dodecanoic acid] | even higher than that of the GRGDSPK peptide
Arg-Gly-Asp [RGD] | not an effective inhibitor
